Reference: ChEMBL document CHEMBL4888484, “Replenishing the malaria drug discovery pipeline: Screening and hit evaluation of the MMV Hit Generation Library 1 (HGL1) against asexual blood stage Plasmodium falciparum ,using a nano luciferase reporter read-out” (2022)

What was measured:
[1] = system: Plasmodium falciparum; experiment: Hit confirmation in dose-response curve in NF54 nanoGlo assay, at 72h; format: functional, organism-based, Erythrocyte; set-up: timepoint 72 hour; conditions: Plasmodium falciparum, NF54, Erythrocyte, 72 h
[2] = system: Plasmodium falciparum; experiment: Hit confirmation in dose-response curve in NF54 pLDH assay, at 72h; format: functional, organism-based; set-up: timepoint 72 hour; conditions: NF54, Erythrocyte
[3] = system: Plasmodium falciparum; experiment: Hit confirmation in dose-response curve in NF54 nanoGlo assay, at 12h; format: functional, organism-based, Erythrocyte; set-up: timepoint 12 hour; conditions: Plasmodium falciparum, NF54, Erythrocyte, 12 h
[4] = Hit confirmation in dose-response curve in HepG2 cytotoxicity assay, at 72h; format: toxicity, cell-based; set-up: timepoint 72 hour; conditions: human, HepG2 cells
[5] = system: Plasmodium falciparum; experiment: Hit confirmation in dose-response curve in Dd2 pLDH assay, at 72h; format: functional, organism-based; set-up: timepoint 72 hour; conditions: Dd2, Erythrocyte

Row | SMILES | IC50 [1] | IC50 [2] | IC50 [3] | IC50 at 72 h [4] | IC50 [5]
1 | Oc1ccc(-c2nnc(-c3ccc(O)cc3)nn2)cc1 | 1.95 µM | 5.62 µM | 5.13 µM | > 10 µM | 3.09 µM
2 | Oc1ccccc1CNc1cccc2cccnc12 | 4.37 µM | > 10 µM | 8.51 µM | > 10 µM | 8.13 µM
3 | Fc1ccccc1N1CCN(C2CCN(Cc3c[nH]c4ccccc34)CC2)CC1 | 1.82 µM | 4.07 µM | > 10 µM | > 10 µM | 3.24 µM
4 | C=Cn1cc[n+](CC(=O)c2ccc(-c3ccccc3)cc2)c1 | 3.09 µM | 3.47 µM | > 10 µM | > 10 µM | 2.63 µM
5 | CNc1nc(NCc2ccccc2)nc2ccccc12 | 1.78 µM | 2.63 µM | 10.2 µM | > 10 µM | 1.07 µM
6 | Cc1cc(N2CC(OCc3ccccc3)C2)nc(Nc2cccc(O)c2)n1 | 1.38 µM | 2.63 µM | 2.88 µM | > 10 µM | 1.45 µM
7 | O=C(Nc1cccnc1)c1ccc(-c2ccc(Cl)c(Cl)c2)o1 | 2.24 µM | 8.32 µM | 1.66 µM | > 10 µM | 7.94 µM
8 | C[C@H]1Cc2cc(C(=O)NCc3nc(C(F)(F)F)n[nH]3)ccc2O1 | 4.27 µM | > 10 µM | 1.45 µM | > 10 µM | > 10 µM
9 | Cc1cc[n+]2c(-c3ccccc3)cc(-c3ccccc3)nc2c1 | 1.51 µM | 2.57 µM | > 10 µM | > 10 µM | 1.78 µM
10 | COc1nc(NC[C@H]2CCCN2C(C)C)ncc1F | 1.32 µM | 1.7 µM | > 10 µM | > 10 µM | > 10 µM
11 | Cc1cc(C)c(NC(=O)OCc2cccc3cccnc23)c(C)c1 | 1.05 µM | 2.82 µM | > 10 µM | > 10 µM | 2.29 µM
12 | Cc1cc(OCCOCCNCCN)cc(C(C)C)c1 | 4.68 µM | > 10 µM | > 10 µM | > 10 µM | 10.7 µM
13 | CN1CCC(n2ncc3[nH]c(-c4ccc(C(F)(F)F)cc4)nc32)CC1 | 0.692 µM | 1.51 µM | 1.32 µM | > 10 µM | 1.2 µM
14 | COc1cccc(N2C(=O)C[C@]3(CC3(c3ccccc3)c3ccccc3)C2=O)c1 | 4.07 µM | > 10 µM | 0.832 µM | > 10 µM | > 10 µM
15 | CCCc1cc(-c2nc(-c3ccc(-n4nc(C)cc4N)cc3)no2)n(C)n1 | 0.871 µM | 1.82 µM | > 10 µM | > 10 µM | 1.86 µM
16 | O=C(Nc1nc2cccc(Cl)c2o1)c1cccc(F)c1 | 1.32 µM | 2 µM | > 10 µM | > 10 µM | 2.51 µM
17 | COc1ccc([C@H](NC(=O)CCc2ccccc2)c2c(O)ccc3ccccc23)cc1 | 2.45 µM | 9.33 µM | 1.48 µM | > 10 µM | 5.62 µM
18 | CCCn1ccnc1-c1cn(Cc2cc3ccccc3[nH]2)nn1 | 2.82 µM | 5.37 µM | > 10 µM | > 10 µM | 4.79 µM
19 | NCc1cccc(C(=O)N2CCc3cc4ccc3[C@@H]2c2cccc(c2)OCCCNC(=O)c2cc(ccc2O)O4)c1 | 1.51 µM | 6.92 µM | 3.72 µM | > 10 µM | 3.72 µM
20 | CC(=O)c1cc(-c2cc(O)cc(CC[C@H]3CCCCN3)c2)ccc1O | 1.51 µM | 2.04 µM | 2.95 µM | > 10 µM | 1.55 µM

Row | SMILES | IC50 [1] | IC50 [2] | IC50 [3] | IC50 at 72 h [4] | IC50 [5]
21 | CN1CCC(N2CCN(Cc3ccc4cc(O)ccc4c3)CC2)CC1 | 1.66 µM | 1.91 µM | 4.68 µM | > 10 µM | 1.38 µM
22 | Oc1ccc2cc(CN3CCC[C@H](CN4CCCC4)C3)ccc2c1 | 1.2 µM | 1.74 µM | 2.45 µM | > 10 µM | 2.63 µM
23 | CNc1nc(NCCc2ccccc2)nc2ccccc12 | 0.912 µM | 1.86 µM | > 10 µM | > 10 µM | 0.661 µM
24 | O[C@@]1(CN2CCC(COc3ccc4c(c3)CCC4)CC2)CCCNC1 | 2.14 µM | 3.47 µM | 6.31 µM | > 10 µM | 2.51 µM
25 | CNc1nc(Nc2ccc3c(c2)OCCO3)nc2ccccc12 | 0.851 µM | 1.17 µM | 1.91 µM | > 10 µM | 1.17 µM
26 | COc1ccc(-c2csc(-n3cc(C4=CCN(CCO)CC4)cn3)n2)cc1 | 5.13 µM | 5.5 µM | > 10 µM | > 10 µM | > 10 µM
27 | CN(C)c1nc(N)cc(-c2cccc3cccnc23)n1 | 2 µM | 3.8 µM | > 10 µM | > 10 µM | 3.47 µM
28 | CCNc1ccnc(NCc2nc(-c3cccc(F)c3)c(-c3ccccn3)[nH]2)n1 | 3.16 µM | 5.75 µM | 8.71 µM | > 10 µM | > 10 µM
29 | Oc1nc(N2CCOC3(CCCC3)C2)ncc1F | 2.57 µM | 4.27 µM | > 10 µM | > 10 µM | > 10 µM
30 | CCN(CCN(C)C)C(=O)c1cccc(-c2ccc3nccc(N)c3c2)c1 | 1.23 µM | 1.35 µM | 1.74 µM | > 10 µM | 1 µM
31 | Cc1cc(-c2cc(O)cc(CC[C@H]3CCCCN3)c2)ccn1 | 0.501 µM | 0.269 µM | 2.95 µM | > 10 µM | 0.269 µM
32 | Cc1ccc(CN2CCN(C[C@@H](O)Cn3c4ccccc4n4c(=O)cc(C)c(C#N)c34)CC2)c(C)c1 | 1.35 µM | 3.55 µM | 1.62 µM | > 10 µM | 3.24 µM
33 | COc1ccccc1CN1COc2cc3c(cc2C1)OCO3 | 1.58 µM | 2.09 µM | 1.91 µM | > 10 µM | 2.29 µM
34 | Cc1nnc(CNC(=O)Nc2cccc3c4c(oc23)CCCC4)o1 | 2.14 µM | 2.19 µM | 2.88 µM | > 10 µM | 2.63 µM
35 | Nc1nc(C2CC(N)C2)cc(N2CCC(Oc3ccccc3Cl)CC2)n1 (stereo not given) | 1.82 µM | 4.07 µM | 3.16 µM | > 10 µM | 3.24 µM
36 | COc1nc(NC2CCS(=O)(=O)CC2)ncc1F | 0.0479 µM | 0.0832 µM | > 10 µM | > 10 µM | > 10 µM
37 | Cc1cc(N2CCC3(CCCN3Cc3cc(C#N)n(C)c3C)CC2)c2ccccc2n1 | 1.95 µM | 3.39 µM | > 10 µM | > 10 µM | 1.86 µM
38 | O=C1NCCCOc2cccc(c2)[C@H]2c3ccc(cc3CCN2C(=O)CCN2CCOCC2)Oc2ccc(O)c1c2 | 2.24 µM | 8.13 µM | > 10 µM | > 10 µM | 4.07 µM
39 | CN1CCN(C2(CNc3ccnc4ccccc34)CCCC2)CC1 | 0.479 µM | 0.38 µM | 0.708 µM | > 10 µM | 0.355 µM
